Ten molecules from ChEMBL document CHEMBL3804804, “Synthesis and antimycobacterial activity of N-(2-aminopurin-6-yl) and N-(purin-6-yl) amino acids and dipeptides” (Bioorg Med Chem Lett, 2016) can be followed below.

System in one data set: not listed separately
Put plainly: Selectivity index, ratio of IC50 for human FEH cells to MIC for multidrug-resistant Mycobacterium tuberculosis. The data set is classed as toxicity, cell-based.
Regarding `Nc1nc(NCC(=O)N[C@@H](CCC(=O)O)C(=O)O)c2nc[nH]c2n1`, the selectivity ratio was over 25.

`O.O=C(O)CC[C@H](NC(=O)CNc1ncnc2[nH]cnc12)C(=O)O`: the selectivity ratio was over 25.

The next data set deals with Mycobacterium tuberculosis. Put plainly: Antimycobacterial activity against multidrug-resistant Mycobacterium tuberculosis harbouring Beijing genotype with combination of mutations of Ser 53-Leu 315 and Ser-Thr in rpoB and katG genes after 10 days by micro broth dilution method. The format is functional.
Turning to `CC(=O)Nc1nc(N2CCC[C@H]2C(=O)OC(C)(C)C)c2nc[nH]c2n1`, the MIC (as a rule, the least concentration at which growth counts as inhibited) is 6.25 µg/mL.

`CC(=O)Nc1nc(NCC(=O)O)c2nc[nH]c2n1`: the MIC stood at 0.7 µg/mL.

For the molecule `CC(C)[C@H](Nc1nc(N)nc2[nH]cnc12)C(=O)O`, the minimum inhibitory concentration (MIC) came out at 6.25 µg/mL.

`CSCC[C@H](NC(=O)CNc1nc(N)nc2[nH]cnc12)C(=O)O.O`: the MIC was 3.1 µg/mL.

Turning to `Nc1nc(NCC(=O)N[C@@H](CCC(=O)O)C(=O)O)c2nc[nH]c2n1`, the MIC was determined as 0.7 µg/mL.

Take `COC(=O)[C@H](CCSC)NC(=O)CNc1nc(NC(C)=O)nc2[nH]cnc12`: the MIC was determined as 3.1 µg/mL.

As for `COC(=O)CNc1nc(N)nc2[nH]cnc12.Cl.Cl`, the MIC is 6.25 µg/mL.

Consider `O.O=C(O)CC[C@H](NC(=O)CNc1ncnc2[nH]cnc12)C(=O)O`, for which the MIC worked out at 0.7 µg/mL.

Regarding `COC(=O)[C@H](Cc1ccccc1)NC(=O)CNc1ncnc2[nH]cnc12`, the MIC was 1.5 µg/mL.

For the molecule `CC1COc2c(N3CCN(C)CC3)c(F)cc3c(=O)c(C(=O)O)cn1c23` (configuration not stated) [OFLOXACIN], the MIC stood at 0.1 µg/mL.
